Laboratory results published in paper PMC7549094 (Journal of Medicinal Chemistry, 2020).
pIC50: −log10 of the molar value.

Legend:
[1] = target: hr PDE4D (Homo sapiens, UniProt Q08499); assay: receptor profile (Table S4); type: biochemical
[2] = target: hr ERBB2 (Homo sapiens, UniProt P04626); assay: receptor profile (Table S4); type: biochemical
[3] = test system: hr GABAA ag
[4] = pharmacokinetics in cynomolgus monkey; type: in vivo; conditions: male cynomolgus monkey
Description: In Vivo Intravenous PK Study in Non-human Primates. The IV PK study in non-human primates was carried out at Covance research facility in Greenfield, Indiana. The research facility is accredited by AAALAC (Association for Assessment and Accreditation of Laboratory Animal Care). The male Cynomolgus monkeys were approximately 4.5 years of age and weighed 4.2 to 5.0 kg. 1 was administered […]
75% polyethylene glycol (PEG300) as described in the earlier section. Doses were administered once by intravenous injection via the saphenous vein at a dose of 0.3 mg/kg with a dosing volume of 0.1 ml/kg.
Clinical observations and food consumption determinations were performed on all animals. Blood samples for PK analysis were collected from all animals via the femoral vein approximately 0.083, 0.25, […]
In Vivo Oral PK Study in Non-human Primates. The PO PK study in non-human primates was conducted at a Novartis facility using Non-naïve male Cynomolgus monkeys weighing 3.8 to 4.0 kg. The monkeys were fasted overnight and fed 2 hours post-dose. 1 was formulated in a suspension of 0.5% […]
gavaged with 5 mL/kg of the suspension for a total dose of 10 mg/kg. The gavage tubing was flushed with 5 mL of water to ensure the gavage tubing was cleared of the formulation. Blood samples for PK analysis were collected from all animals via the saphenous veins approximately 0.25, 0.5, 1, 2, 4, 7, 24, 48, and 72 hours post-dose.

[5] = target: hr ACES (Homo sapiens, UniProt P22303); assay: receptor profile (Table S4); type: biochemical
[6] = target: hr D1 ag (Homo sapiens, UniProt P21728); assay: receptor profile (Table S4); type: biochemical
[7] = test system: L. donovani; assay: murine model of visceral leishmaniasis, liver parasite burden by qPCR; type: in vivo; conditions: mice infected with L. donovani; 1 mg/kg b.i.d. PO, 8 days
Description: Formulation of study drugs for in vivo efficacy experiments. LXE408 administered to mice during efficacy experiments was formulated as a suspension in distilled water containing 0.5% methylcellulose and 0.5% Tween-80 (mouse model of visceral leishmaniasis) or hydroxypropylcellulose and Tween-80 (mouse models of cutaneous leishmaniasis). Miltefosine was formulated as a solution in distilled water containing 0.5% methylcellulose and 0.5% Tween-80.
Mouse model of visceral leishmaniasis. Female BALB/c mice (6-8 weeks old) were infected by tail vein injection with 4x 107 L. donovani MHOM/ET/67/HU3 splenic amastigotes. Seven days after infection, animals were orally dosed for 8 days with vehicle (0.5% MC/0.5% Tween-80 in distilled water), miltefosine (12 mg/kg once-daily), or LXE408 (twice-daily). At the end of treatment, liver samples were collected and L. donovani parasite burdens were quantified by qPCR as follows. L. donovani genomic DNA was extracted from drug-treated mice livers using the DNeasy Blood and Tissue Kit (Qiagen). Two types of DNA were quantified in parallel using the TaqMan assays for L. donovani major surface

[8] = target: hr GHS (Homo sapiens, UniProt Q92847); assay: receptor profile (Table S4); type: binding
[9] = target: CYP2D15 (Canis lupus familiaris, UniProt Q29473); conditions: panel of dog recombinant CYP enzymes; 1 µM, 30 min
[10] = target: hr 5-HT2A antag (Homo sapiens, UniProt P28223); assay: receptor profile (Table S4); type: biochemical
[11] = target: T1, hr Al1A ag (Homo sapiens, UniProt P35348); assay: receptor profile (Table S4); type: biochemical
T1 sequence (P35348 1-466): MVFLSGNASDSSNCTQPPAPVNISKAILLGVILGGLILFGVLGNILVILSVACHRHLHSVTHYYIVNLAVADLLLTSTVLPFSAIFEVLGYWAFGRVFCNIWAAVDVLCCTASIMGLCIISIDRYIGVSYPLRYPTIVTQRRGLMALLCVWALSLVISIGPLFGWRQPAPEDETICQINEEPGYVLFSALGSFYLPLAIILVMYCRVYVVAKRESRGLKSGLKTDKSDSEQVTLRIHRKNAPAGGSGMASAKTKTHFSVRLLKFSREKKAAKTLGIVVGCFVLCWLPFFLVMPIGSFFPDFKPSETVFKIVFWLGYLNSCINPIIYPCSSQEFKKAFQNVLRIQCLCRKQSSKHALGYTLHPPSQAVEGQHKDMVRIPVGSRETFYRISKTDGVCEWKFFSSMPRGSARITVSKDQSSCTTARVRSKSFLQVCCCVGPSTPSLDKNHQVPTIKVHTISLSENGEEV

[12] = target: hr Mot (Homo sapiens, UniProt O43193); assay: receptor profile (Table S4); type: binding
[13] = target: wild-type (PSMB4^WT) L. tarentolae proteasome (Leishmania tarentolae, UniProt A0A640KTY7+A0A640KW57); assay: chymotrypsin-like activity of purified wild-type L. tarentolae proteasome; type: biochemical; conditions: n = 3 technical replicates
[14] = target: T2, hr 5-HT1A antag (Homo sapiens, UniProt P08908); assay: receptor profile (Table S4); type: biochemical
T2 sequence (P08908 1-422): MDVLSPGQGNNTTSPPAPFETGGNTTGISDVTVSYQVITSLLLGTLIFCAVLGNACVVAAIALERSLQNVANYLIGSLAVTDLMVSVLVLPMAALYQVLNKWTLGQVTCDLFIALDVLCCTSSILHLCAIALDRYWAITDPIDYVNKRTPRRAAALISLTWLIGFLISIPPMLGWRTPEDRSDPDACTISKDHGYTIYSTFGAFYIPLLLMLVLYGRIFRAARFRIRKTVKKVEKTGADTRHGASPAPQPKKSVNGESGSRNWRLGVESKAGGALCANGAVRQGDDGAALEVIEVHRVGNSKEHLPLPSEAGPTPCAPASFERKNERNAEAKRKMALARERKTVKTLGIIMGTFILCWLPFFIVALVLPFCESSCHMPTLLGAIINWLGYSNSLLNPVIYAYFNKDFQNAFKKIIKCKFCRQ

[15] = target: hr NET (Homo sapiens, UniProt P23975); assay: receptor profile (Table S4); type: binding
[16] = target: hr Beta2 ag (Homo sapiens, UniProt P07550); assay: receptor profile (Table S4); type: biochemical
Sequence of hr Beta2 ag (P07550 whole entry): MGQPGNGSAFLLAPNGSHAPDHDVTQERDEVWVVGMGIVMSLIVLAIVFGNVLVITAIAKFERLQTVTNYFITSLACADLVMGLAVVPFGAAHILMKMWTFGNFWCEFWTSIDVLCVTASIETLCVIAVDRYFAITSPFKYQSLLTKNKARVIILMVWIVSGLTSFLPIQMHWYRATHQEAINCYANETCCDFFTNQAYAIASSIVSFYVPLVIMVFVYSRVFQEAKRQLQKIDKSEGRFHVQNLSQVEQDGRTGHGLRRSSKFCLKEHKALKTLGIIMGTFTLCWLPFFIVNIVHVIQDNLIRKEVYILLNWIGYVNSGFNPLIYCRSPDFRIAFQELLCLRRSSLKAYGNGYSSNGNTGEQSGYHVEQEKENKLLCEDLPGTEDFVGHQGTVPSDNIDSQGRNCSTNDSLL

Sequence of hr PDE4D (Q08499 whole entry): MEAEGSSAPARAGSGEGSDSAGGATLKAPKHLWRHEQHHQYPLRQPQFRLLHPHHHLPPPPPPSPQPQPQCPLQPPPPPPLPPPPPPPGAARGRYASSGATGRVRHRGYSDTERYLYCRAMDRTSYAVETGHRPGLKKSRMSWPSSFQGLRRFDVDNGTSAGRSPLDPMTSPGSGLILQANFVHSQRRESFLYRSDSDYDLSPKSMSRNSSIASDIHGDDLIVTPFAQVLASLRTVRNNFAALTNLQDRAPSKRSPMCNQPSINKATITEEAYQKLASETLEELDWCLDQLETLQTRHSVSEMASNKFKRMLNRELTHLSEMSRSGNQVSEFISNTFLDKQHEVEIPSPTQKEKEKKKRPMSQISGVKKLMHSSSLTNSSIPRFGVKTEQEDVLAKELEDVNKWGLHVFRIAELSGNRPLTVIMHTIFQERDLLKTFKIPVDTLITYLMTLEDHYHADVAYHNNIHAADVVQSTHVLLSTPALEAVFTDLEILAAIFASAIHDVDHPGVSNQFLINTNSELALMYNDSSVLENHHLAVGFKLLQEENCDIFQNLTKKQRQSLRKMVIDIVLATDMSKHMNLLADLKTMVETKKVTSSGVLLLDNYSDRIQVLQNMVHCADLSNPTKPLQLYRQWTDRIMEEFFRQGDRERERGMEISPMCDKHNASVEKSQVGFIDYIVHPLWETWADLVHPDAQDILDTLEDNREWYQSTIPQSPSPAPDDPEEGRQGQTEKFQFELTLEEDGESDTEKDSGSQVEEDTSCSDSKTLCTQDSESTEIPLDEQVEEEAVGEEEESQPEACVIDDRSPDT
Sequence of hr NET (P23975 whole entry): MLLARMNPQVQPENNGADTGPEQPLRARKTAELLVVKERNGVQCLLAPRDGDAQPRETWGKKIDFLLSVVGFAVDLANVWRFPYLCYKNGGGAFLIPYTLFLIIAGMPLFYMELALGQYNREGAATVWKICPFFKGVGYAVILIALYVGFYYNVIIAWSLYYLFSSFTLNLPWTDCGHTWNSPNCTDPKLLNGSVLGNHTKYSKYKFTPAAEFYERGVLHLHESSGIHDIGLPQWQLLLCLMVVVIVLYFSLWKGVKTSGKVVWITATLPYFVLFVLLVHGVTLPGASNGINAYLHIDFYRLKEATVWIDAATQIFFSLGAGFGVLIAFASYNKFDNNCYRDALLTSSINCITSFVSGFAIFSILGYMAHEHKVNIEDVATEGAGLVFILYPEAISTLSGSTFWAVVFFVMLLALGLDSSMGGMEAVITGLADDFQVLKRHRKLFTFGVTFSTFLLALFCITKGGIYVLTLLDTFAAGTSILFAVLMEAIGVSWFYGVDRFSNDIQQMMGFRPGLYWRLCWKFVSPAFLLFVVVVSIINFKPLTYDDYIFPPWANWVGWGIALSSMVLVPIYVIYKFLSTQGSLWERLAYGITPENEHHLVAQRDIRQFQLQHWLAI
Sequence of hr ERBB2 (P04626 23-1255): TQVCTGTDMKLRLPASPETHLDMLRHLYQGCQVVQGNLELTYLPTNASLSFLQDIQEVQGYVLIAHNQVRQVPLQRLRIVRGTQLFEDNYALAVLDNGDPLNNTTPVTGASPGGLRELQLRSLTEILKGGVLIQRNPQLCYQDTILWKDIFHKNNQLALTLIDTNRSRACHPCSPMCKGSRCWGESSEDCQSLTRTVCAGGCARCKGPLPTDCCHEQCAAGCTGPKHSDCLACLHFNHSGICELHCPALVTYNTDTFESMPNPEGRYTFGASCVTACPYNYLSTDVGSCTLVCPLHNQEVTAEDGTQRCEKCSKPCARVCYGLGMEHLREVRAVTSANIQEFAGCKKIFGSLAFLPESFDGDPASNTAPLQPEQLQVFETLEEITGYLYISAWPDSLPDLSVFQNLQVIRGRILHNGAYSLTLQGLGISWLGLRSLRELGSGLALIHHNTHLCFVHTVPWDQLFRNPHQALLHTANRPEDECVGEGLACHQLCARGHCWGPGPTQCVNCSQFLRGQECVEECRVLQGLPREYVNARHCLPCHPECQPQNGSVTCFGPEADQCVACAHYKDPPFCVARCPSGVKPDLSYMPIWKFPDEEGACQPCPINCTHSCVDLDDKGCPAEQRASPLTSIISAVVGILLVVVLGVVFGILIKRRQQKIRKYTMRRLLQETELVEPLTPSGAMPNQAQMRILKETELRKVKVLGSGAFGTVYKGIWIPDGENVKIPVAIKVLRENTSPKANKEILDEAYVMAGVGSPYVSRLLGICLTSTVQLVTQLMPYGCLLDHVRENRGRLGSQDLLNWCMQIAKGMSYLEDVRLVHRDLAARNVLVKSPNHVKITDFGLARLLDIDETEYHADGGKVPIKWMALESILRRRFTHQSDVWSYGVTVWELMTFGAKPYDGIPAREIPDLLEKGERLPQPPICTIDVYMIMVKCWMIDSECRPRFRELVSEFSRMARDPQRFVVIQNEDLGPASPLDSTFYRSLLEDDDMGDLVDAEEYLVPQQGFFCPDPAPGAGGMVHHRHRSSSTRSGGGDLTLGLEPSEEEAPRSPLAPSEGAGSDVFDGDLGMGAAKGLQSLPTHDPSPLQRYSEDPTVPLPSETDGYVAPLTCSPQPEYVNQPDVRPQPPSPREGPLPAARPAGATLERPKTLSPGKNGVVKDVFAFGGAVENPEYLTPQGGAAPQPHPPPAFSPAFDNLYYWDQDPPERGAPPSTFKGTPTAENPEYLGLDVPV
Sequence of hr D1 ag (P21728 whole entry): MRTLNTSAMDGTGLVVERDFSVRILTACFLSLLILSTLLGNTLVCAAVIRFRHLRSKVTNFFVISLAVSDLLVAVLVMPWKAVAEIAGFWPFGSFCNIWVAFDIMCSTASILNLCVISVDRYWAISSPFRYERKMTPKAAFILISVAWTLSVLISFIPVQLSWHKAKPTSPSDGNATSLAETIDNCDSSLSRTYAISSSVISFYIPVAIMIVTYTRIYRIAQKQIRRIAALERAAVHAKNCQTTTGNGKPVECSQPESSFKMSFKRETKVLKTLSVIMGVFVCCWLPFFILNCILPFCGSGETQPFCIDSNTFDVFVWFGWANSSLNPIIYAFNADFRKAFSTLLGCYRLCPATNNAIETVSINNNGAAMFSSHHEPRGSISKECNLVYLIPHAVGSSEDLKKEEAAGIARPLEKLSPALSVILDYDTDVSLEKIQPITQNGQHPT
Sequence of hr Mot (O43193 whole entry): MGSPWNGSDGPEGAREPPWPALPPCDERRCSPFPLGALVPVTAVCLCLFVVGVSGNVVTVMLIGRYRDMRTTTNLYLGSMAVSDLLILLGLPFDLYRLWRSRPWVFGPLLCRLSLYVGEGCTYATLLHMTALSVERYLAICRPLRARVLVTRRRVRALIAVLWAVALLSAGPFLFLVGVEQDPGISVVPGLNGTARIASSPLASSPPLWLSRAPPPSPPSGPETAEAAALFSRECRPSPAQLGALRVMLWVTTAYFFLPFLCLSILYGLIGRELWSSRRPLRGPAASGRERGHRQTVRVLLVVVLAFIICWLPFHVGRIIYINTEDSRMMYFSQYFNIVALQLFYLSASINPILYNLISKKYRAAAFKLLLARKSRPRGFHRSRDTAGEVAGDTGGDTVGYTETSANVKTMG
Sequence of hr GHS (Q92847 whole entry): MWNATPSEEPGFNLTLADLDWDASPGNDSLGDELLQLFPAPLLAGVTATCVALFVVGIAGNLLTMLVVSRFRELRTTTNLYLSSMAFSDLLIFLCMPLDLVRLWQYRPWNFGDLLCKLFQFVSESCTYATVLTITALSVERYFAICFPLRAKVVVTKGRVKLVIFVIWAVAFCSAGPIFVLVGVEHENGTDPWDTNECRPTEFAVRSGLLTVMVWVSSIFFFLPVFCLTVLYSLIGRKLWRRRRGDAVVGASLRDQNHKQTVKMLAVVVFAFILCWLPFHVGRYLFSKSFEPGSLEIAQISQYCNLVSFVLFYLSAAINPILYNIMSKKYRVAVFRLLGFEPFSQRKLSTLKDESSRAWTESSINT
Sequence of hr ACES (P22303 32-614): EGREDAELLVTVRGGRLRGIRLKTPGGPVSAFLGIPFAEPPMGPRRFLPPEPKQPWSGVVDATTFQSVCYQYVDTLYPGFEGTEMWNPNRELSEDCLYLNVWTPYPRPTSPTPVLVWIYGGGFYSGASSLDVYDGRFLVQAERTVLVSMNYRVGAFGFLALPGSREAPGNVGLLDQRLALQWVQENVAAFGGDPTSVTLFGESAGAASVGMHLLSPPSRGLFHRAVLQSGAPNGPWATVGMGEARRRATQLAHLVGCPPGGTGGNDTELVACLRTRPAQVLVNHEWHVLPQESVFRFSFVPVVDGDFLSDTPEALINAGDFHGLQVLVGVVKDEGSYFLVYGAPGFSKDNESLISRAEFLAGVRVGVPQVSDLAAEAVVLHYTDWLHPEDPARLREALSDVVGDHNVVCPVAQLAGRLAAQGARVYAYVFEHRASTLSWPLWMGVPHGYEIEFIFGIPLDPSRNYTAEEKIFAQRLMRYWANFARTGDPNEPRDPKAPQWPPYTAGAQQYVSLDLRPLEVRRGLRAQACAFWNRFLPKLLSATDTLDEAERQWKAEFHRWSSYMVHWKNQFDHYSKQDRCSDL

Structure (SMILES): Cc1nc(C)c(C(=O)Nc2ccc(F)c(-c3nc4ncc(-c5ncccc5C)cn4n3)c2)o1 [compound 1, N-(4-Fluoro-3-(6-(3-methylpyridin-2-yl)-[1,2,4]triazolo[1,5-a]pyrimidin-2-yl)phenyl)-2,4-dimethyloxazole-5-carboxamide]
- EC50/IC50 ([1]; hr PDE4D): > 30 µM
- inhibition at 10 µM ([1]; read-out: % inh/act @ 10 µM): 35%
- inhibition at 30 µM ([1]; read-out: % inh/act @ 30 µM): 49%
- EC50/IC50 ([2]; hr ERBB2): > 30 µM
- inhibition at 10 µM ([2]; read-out: % inh/act @ 10 µM): 0%
- inhibition at 30 µM ([2]; read-out: % inh/act @ 30 µM): 0%
- % inh/act @ 10 µM [3]: -11%
- % inh/act @ 30 µM [3]: -2%
- MRT ([4]; in vivo, 0.3 mg/kg IV): 9.7 h
- bioavailability ([4]; in vivo, 0.3 mg/kg IV and 10 mg/kg PO): 27%
- clearance ([4]; in vivo, 0.3 mg/kg IV, fumarate salt): 0.9 mL/min/kg
- half-life ([4]; in vivo, 0.3 mg/kg IV, read-out: T1/2 IV (converted)): 9.7 h
- Vd ([4]; in vivo, 0.3 mg/kg IV, read-out: Vss): 0.5 L/kg
- DN AUC PO ([4]; 10 mg/kg PO, dose-normalized): 12 µM·h
- DN Cmax PO ([4]; 10 mg/kg PO, dose-normalized): 1000 nM
- EC50/IC50 ([5]; hr ACES): > 30 µM
- inhibition at 10 µM ([5]; read-out: % inh/act @ 10 µM): 16%
- EC50/IC50 ([6]; hr D1 ag): > 30 µM
- inhibition at 10 µM ([6]; read-out: % inh/act @ 10 µM): 6%
- inhibition at 30 µM ([6]; read-out: % inh/act @ 30 µM): 2%
- reduction of parasite burden in the liver [7]: 95%
- EC50/IC50 ([8]; hr GHS): > 30 µM
- inhibition at 10 µM ([8]; read-out: % inh/act @ 10 µM): 12%
- inhibition at 30 µM ([8]; read-out: % inh/act @ 30 µM): 12%
- metabolism by dog recombinant CYP enzymes [9]: metabolized to 8 predominantly by CYP2D15
- EC50/IC50 ([10]; hr 5-HT2A antag): > 10 µM
- inhibition at 10 µM ([10]; read-out: % inh/act @ 10 µM): 34%
- EC50/IC50 ([11]; hr Al1A ag): > 30 µM
- inhibition at 10 µM ([11]; read-out: % inh/act @ 10 µM): 0%
- inhibition at 30 µM ([11]; read-out: % inh/act @ 30 µM): 1%
- EC50/IC50 ([12]; hr Mot): > 30 µM
- inhibition at 10 µM ([12]; read-out: % inh/act @ 10 µM): -3%
- inhibition at 30 µM ([12]; read-out: % inh/act @ 30 µM): 3%
- pIC50 [13]: 7.30
- EC50/IC50 ([14]; hr 5-HT1A antag): > 30 µM
- inhibition at 10 µM ([14]; read-out: % inh/act @ 10 µM): 19%
- inhibition at 30 µM ([14]; read-out: % inh/act @ 30 µM): 42%
- EC50/IC50 ([15]; hr NET): > 30 µM
- inhibition at 10 µM ([15]; read-out: % inh/act @ 10 µM): 19%
- inhibition at 30 µM ([15]; read-out: % inh/act @ 30 µM): 24%
- EC50/IC50 ([16]; hr Beta2 ag): > 30 µM
- inhibition at 10 µM ([16]; read-out: % inh/act @ 10 µM): 1%
- inhibition at 30 µM ([16]; read-out: % inh/act @ 30 µM): 7%
